Reference: patent US8663669B2, “Pesticide treatment of soils or substrates with sulphur compounds” (Arkema France, priority 2002, dated 2014)

Tested on: Sclerotinia sclerotiorum
Assay: Fungicidal efficacy by gassing, sclerotia
Assay type: cell-based
Set-up: Vitality score Nm (over 19 days): scale not given here; Reduction in viability RV / Reduction in vitality score RNm: unit not given here
Settings: for Reduction in viability RV / Reduction in vitality score RNm: compared with the control
Method: These four organisms are the following:
Sclerotinia sclerotiorum: polyphagous fungus which attacks mainly melon crops.
• Sclerotinia sclerotiorum: sclerotia • Sclerotium rolfsii: sclerotia • Rhizoctonia solani: colonized barley grains (mycelium and sclerotia) • Phytophthora cactorum: colonized millet grains (mycelium, sporangia and oospores) Preparation of the Fungi (24 h Before the Gassing Operation) 1. Preparation of the sclerotia of Sclerotinia sclerotiorum and of Sclerotium rolfsii: The fungi are cultured on malt agar medium until the sclerotia are obtained. The sclerotia are collected in a sterile manner and stored dry in empty Petri dishes until they are used. The sclerotia used for the trial are over 3 months old and are perfectly dormant. 2. Preparation of Phytophthora cactorum and of Rhizoctonia solani: The millet and barley used for the multiplication of the two fungi are moistened with ultrapure water by immersing for 24 hours. The grains are then slightly drained and then distributed into flasks and autoclaved (3 autoclavings at 110° C. for 20 minutes, 3 times at 24 hour intervals). Fragments of fungal culture are introduced into the flasks which are then incubated at 22° C.±2° C. (white light 18 h) until homogeneous colonization is obtained. The grains are then removed from the flasks in a sterile manner, dried in the sterile stream of a safety cabinet and then stored in the dry state until they are used. Conditions for Gassing and for Desorption
All the batches of fungi to be treated are placed for a few hours at the trial temperature (20° C.). Between 35 and 300 units of fungi or “propagules” (grains or sclerotia) are subjected to gassing during each trial.
Each fumigation chamber comprising to one or more species of fungi corresponds to a glass round-bottomed flask which is impervious to the gas and has a volume of 11 litres. Each round-bottomed flask is equipped with branch connections, one at the bottom for introducing the liquid DMDS, one at the top for collecting the air sample with a syringe.
Before introducing the gas, a partial vacuum (−500 mbar) is established in the round-bottomed flask with a vacuum pump. This makes it possible, on the one hand, to avoid the phenomenon of excess pressure due to the expansibility of DMDS in the round-bottomed flask and, on the other hand, to promote better homogeneity of the air-gas mixture in the first few seconds which follow injection. The DMDS (weighed accurately to the mg) is injected with a syringe, in liquid form, through the bottom branch connection, that is to say under the screen placed at half height of the round-bottomed flask and supporting the batches of fungi. After introducing the product, the internal pressure of the round-bottomed flask is re-established at atmospheric pressure. A magnetic stirrer operates during the entire duration of the treatment in order to properly homogenize the air-gas mixture.
At the end of the gassing, the cover for the round-bottomed flask is removed. One minute after this operation, the batches of fungi gassed are taken out and left in the open air for 15 minutes for desorption of the DMDS. They are then transferred into a Petri dish, the latter remaining open for 5 minutes to allow perfect desorption of the gas.
The mean concentration (C in g/m^3) of DMDS in the fumigation chamber after homogenization of the gas in the chamber air is measured by GC with an FID detector and, taking into account the duration of exposure (T in hours), the product CT (g·h/m^3) is calculated which, in the field of fumigation, is the key parameter to be considered, since the biological efficacy of a gas towards a given pathogenic agent is only effective if the latter was exposed to a certain mean concentration C for a certain duration of exposure T, that is to say to a certain value of the product CT, a value (or dose) which can be reached in different ways: low concentrations and long duration of exposure or conversely. […]

[1] = CT 1 050 g·h/m^3 (C 15.91 g/m^3, T 66 h)
[2] = CT 1 402 g·h/m^3 (C 21.24 g/m^3, T 66 h)
[3] = CT 1 450 g·h/m^3 (C 30.96 g/m^3, T 48 h)
[4] = CT 1 899 g·h/m^3 (C 28.77 g/m^3, T 66 h)
[5] = CT 1 981 g·h/m^3 (C 30.02 g/m^3, T 66 h)
[6] = CT 2 460 g·h/m^3 (C 51.25 g/m^3, T 48 h)
[7] = CT 2 471 g·h/m^3 (C 37.44 g/m^3, T 66 h)
[8] = CT 2 837 g·h/m^3 (C 42.98 g/m^3, T 66 h)
[9] = CT 2 974 g·h/m^3 (C 45.06 g/m^3, T 66 h)
[10] = CT 3 169 g·h/m^3 (C 48.02 g/m^3, T 66 h)
[11] = CT 3 467 g·h/m^3 (C 52.53 g/m^3, T 66 h), called an abnormal point
[12] = CT 419 g·h/m^3 (C 17.46 g/m^3, T 24 h)
[13] = CT 625 g·h/m^3 (C 26.04 g/m^3, T 24 h)
[14] = CT 703 g·h/m^3 (C 29.29 g/m^3, T 24 h)
[15] = CT 907 g·h/m^3 (C 37.79 g/m^3, T 24 h)

## CSSC [DMDS, dimethyl disulphide]
[1]
  Viability V: 41.8%
  Vitality score Nm (over 19 days): 5.1
  Reduction in viability RV: 56.1
  Reduction in vitality score RNm: 63.6
[2]
  Viability V: 46.8%
  Vitality score Nm (over 19 days): 1.3
  Reduction in viability RV: 50.9
  Reduction in vitality score RNm: 90.6
[3]
  Viability V: 29.8%
  Vitality score Nm (over 19 days): 1.0
  Reduction in viability RV: 65.8
  Reduction in vitality score RNm: 92.1
[4]
  Viability V: 29.6%
  Vitality score Nm (over 19 days): 3.6
  Reduction in viability RV: 68.9
  Reduction in vitality score RNm: 74.8
[5]
  Viability V: 20.3%
  Vitality score Nm (over 19 days): 2.7
  Reduction in viability RV: 78.7
  Reduction in vitality score RNm: 81.2
[6]
  Viability V: 14.6%
  Vitality score Nm (over 19 days): 0.7
  Reduction in viability RV: 83.2
  Reduction in vitality score RNm: 94.9
[7]
  Viability V: 32.9%
  Vitality score Nm (over 19 days): 4.6
  Reduction in viability RV: 67.1
  Reduction in vitality score RNm: 70.5
[8]
  Viability V: 14.1%
  Vitality score Nm (over 19 days): 1.8
  Reduction in viability RV: 85.2
  Reduction in vitality score RNm: 87.5
[9]
  Viability V: 11.2%
  Vitality score Nm (over 19 days): 1.6
  Reduction in viability RV: 88.8
  Reduction in vitality score RNm: 89.9
[10]
  Viability V: 0%
  Vitality score Nm (over 19 days): 0
  Reduction in viability RV: 100
  Reduction in vitality score RNm: 100
[11]
  Viability V: 32.3%
  Vitality score Nm (over 19 days): 3.3
  Reduction in viability RV: 67.7
  Reduction in vitality score RNm: 79.0
[12]
  Viability V: 89.7%
  Vitality score Nm (over 19 days): 13.3
  Reduction in viability RV: −3.0
  Reduction in vitality score RNm: −3.6
[13]
  Viability V: 87.8%
  Vitality score Nm (over 19 days): 12.8
  Reduction in viability RV: −0.8
  Reduction in vitality score RNm: 0.1
[14]
  Viability V: 85.4%
  Vitality score Nm (over 19 days): 12.6
  Reduction in viability RV: 2.0
  Reduction in vitality score RNm: 2.2
[15]
  Viability V: 81.6%
  Vitality score Nm (over 19 days): 12.0
  Reduction in viability RV: 6.3
  Reduction in vitality score RNm: 6.6
